Measured values from US12649750B2, “Macrocyclic compounds, compositions, and methods of using thereof” (Sionna Therapeutics Inc., priority 2022, dated 2026).

What was measured:
NBD1 = target: T1, NBD1 (Homo sapiens, UniProt P13569); experiment: Aggregation analysis using differential static light scattering (DSLS), thermal stability of NBD1 (ΔTagg); assay type: binding; settings: ΔTagg versus DMSO control, NBD1 0.2 mg/ml
T1 construct: Purified recombinant NBD1 was produced using previously described methods; made in house
T1 sequence (P13569 423-646 limits assumed): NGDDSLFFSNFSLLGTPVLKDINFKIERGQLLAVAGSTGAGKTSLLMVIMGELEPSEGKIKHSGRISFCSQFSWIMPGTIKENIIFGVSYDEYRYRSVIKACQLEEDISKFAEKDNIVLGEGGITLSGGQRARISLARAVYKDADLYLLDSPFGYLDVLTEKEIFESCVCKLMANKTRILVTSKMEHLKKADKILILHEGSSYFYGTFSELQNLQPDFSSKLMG
Outline: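 Thermal aggregation of purified NBD1 was followed by static light scattering during a 1° C./min ramp to 70° C. Protein was at 0.2 mg/ml with 2 mM ATP at pH7.6. Each compound's Tagg was referenced to DMSO controls.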

CFTR = target: T2, CFTR (Homo sapiens, UniProt P13569, DEL508-508); experiment: TECC24 AUC fold over DMSO @10 μM, CFTR-mediated transepithelial chloride transport in CF-HBE cells; assay type: cell-based; settings: test agent AUC divided by DMSO vehicle AUC, primary CF-HBE cells, ΔF508 homozygous donor, 48 hours incubation
T2 construct: Primary human bronchial epithelial cells from a ΔF508 homozygous CF donor; host or cells: primary human bronchial epithelial cells (CF-HBE), ΔF508 homozygous donor
T2 sequence (P13569 with tags, fused parts or gaps DEL508-508): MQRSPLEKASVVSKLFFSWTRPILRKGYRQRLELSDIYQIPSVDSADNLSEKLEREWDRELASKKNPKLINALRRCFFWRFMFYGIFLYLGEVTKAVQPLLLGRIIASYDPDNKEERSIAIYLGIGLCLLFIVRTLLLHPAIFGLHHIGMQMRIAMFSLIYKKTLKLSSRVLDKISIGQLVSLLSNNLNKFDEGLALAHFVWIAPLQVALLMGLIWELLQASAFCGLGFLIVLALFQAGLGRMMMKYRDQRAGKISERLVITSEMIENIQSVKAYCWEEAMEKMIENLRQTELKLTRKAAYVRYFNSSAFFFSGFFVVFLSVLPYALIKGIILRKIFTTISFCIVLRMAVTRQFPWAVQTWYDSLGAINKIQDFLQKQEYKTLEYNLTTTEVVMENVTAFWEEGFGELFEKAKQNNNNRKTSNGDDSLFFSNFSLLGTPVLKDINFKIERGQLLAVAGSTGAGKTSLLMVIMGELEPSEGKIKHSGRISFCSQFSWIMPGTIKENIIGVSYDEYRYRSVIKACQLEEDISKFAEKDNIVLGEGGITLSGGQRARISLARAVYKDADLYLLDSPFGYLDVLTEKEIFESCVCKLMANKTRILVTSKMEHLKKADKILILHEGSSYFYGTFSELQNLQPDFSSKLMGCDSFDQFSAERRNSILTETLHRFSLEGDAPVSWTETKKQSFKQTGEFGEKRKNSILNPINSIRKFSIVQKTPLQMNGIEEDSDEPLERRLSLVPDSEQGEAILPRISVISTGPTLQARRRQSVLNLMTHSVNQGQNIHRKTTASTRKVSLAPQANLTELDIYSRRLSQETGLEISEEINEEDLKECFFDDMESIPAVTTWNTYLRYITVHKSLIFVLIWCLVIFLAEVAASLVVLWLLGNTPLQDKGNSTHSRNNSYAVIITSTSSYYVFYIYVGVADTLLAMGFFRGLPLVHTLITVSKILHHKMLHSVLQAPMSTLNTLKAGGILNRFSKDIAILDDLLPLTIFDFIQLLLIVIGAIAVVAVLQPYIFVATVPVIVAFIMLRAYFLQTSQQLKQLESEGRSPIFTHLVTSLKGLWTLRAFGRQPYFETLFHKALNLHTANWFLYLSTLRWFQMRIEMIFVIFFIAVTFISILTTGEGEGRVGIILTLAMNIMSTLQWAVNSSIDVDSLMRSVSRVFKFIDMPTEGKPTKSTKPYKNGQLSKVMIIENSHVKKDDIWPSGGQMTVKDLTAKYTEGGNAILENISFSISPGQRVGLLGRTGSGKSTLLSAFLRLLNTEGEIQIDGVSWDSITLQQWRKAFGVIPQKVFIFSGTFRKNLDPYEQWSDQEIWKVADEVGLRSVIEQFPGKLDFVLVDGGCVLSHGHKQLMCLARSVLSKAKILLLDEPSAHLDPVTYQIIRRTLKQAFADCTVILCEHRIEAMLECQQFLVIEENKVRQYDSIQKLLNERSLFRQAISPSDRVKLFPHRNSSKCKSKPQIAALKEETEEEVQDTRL
Outline: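 Primary ΔF508-homozygous CF bronchial epithelial cells on inserts were incubated 48 h at 36.5 °C with compound in IL-13-containing medium. VT and TEER were then recorded in current-clamp mode (pH 7.4 HEPES bath) with benzamil 10 μM, forskolin 10 μM, then CFTR inhibitor-172 20 μM. The IEQ AUC between forskolin and inhibitor was divided by vehicle AUC.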

| Compound | DSLS 3D (100 μM ΔT) (NBD1) | TECC (AUC, 10 μM) (CFTR) |
| --- | --- | --- |
| Cn1cc2nc1-c1cc(ccc1F)Oc1c(F)cc3[nH]ccc3c1CCS(=O)(=O)CC(C)(C)CCCC2(C)c1cccc(CC(=O)O)c1 (centres unmarked) [Compound 61, 2-[3-(22,28-Difluoro-3,6,10,10-tetramethyl-12,12-dioxo-24-oxa-12lambda6-thia-3,19,30-triazapentacyclo[23.3.1.12,5.015,23.016,20]triaconta-1(29),2(30),4,15,17,20,22,25,27-nonaen-6-yl)phenyl]acetic Acid] | C (a value greater than 10 °C and less than or equal to 25 °C is marked “C”) | B (a value between 12-20 is marked “B”) |
| C[C@@H](Cc1cccc(C2(C)CCCC(C)(C)CS(=O)(=O)CCc3c(c(F)cc4[nH]ccc34)Oc3ccc(F)c(c3)-c3nc2nn3C)c1)C(=O)OCCN1CCN(C)CC1 (single isomer, unassigned) [Compound 143] | B (a value above 5 °C and less than or equal to 10 °C is marked “B”) | B (a value between 12-20 is marked “B”) |
| CC(C)n1nc2nc1C(C)(c1cccc(CCC(=O)O)c1)CCCC(C)(C)CS(=O)(=O)CCc1c(c(F)cc3[nH]ccc13)Oc1ccc(F)c-2c1 (centres unmarked) [Compound 74, 3-[3-(22,28-Difluoro-4-isopropyl-6,10,10-trimethyl-12,12-dioxo-24-oxa-12λ6-thia-3,4,19,30-tetrazapentacyclo-[23.3.1.12,5.015,23.016,20]triaconta-1(29),2,5(30),15,17,20,22,25,27-nonaen-6-yl)phenyl]propanoic acid] | C (a value greater than 10 °C and less than or equal to 25 °C is marked “C”) | A (a TECC value less than 12 is marked “A”) |
| CC1(C)CCCC(c2cccc(CCC(=O)O)c2)n2ccc(n2)-c2cc(ccc2F)Oc2c(F)cc3[nH]ccc3c2CCS(=O)(=O)C1 (single isomer, unassigned) [Compound 24A, 3-[3-[22,28-difluoro-10,10-dimethyl-12,12-dioxo-24-oxa-12lambda6-thia-5,19,30-triazapentacyclo[23.3.1.12,5.015,23.016,20]triaconta-1(29),2(30),3,15,17,20,22,25,27-nonaen-6-yl]phenyl]propanoic Acid] | B (a value above 5 °C and less than or equal to 10 °C is marked “B”) | A (a TECC value less than 12 is marked “A”) |
| C[C@@H](Cc1cccc([C@@]2(C)CCCC(C)(C)CS(=O)(=O)CCc3c(c(F)cc4[nH]ccc34)[S+]([O-])c3ccc(F)c(c3)-c3nc2cs3)c1)C(=O)O (single isomer, unassigned) [Compound 241B] | A (an ΔTagg value less than or equal to 5 °C is marked “A”) | A (a TECC value less than 12 is marked “A”) |
| C[C@@H](Cc1cccc([C@@]2(C)CCCC(C)(C)CS(=O)(=O)CCc3c(c(F)cc4[nH]ccc34)[S+]([O-])c3ccc(F)c(c3)-c3nc2nn3C)c1)C(=O)O (single isomer, unassigned) [Compound 205] | B (a value above 5 °C and less than or equal to 10 °C is marked “B”) | A (a TECC value less than 12 is marked “A”) |
| CC1(C)CS(=O)(=O)CCc2c(c(F)cc3[nH]ccc23)Oc2ccc(F)c(c2)-c2ccn(n2)C(c2cccc(CCC(=O)O)c2)CCO1 (single isomer, unassigned) [Compound 87B, 3-[3-(22,28-difluoro-10,10-dimethyl-12,12-dioxo-9,24-dioxa-12lambda6-thia-5,19,30-triazapentacyclo[23.3.1.12,5.015,23.016,20]-triaconta-1(29),2(30),3,15,17,20,22,25,27-nonaen-6-yl)phenyl]propanoic acid] | C (a value greater than 10 °C and less than or equal to 25 °C is marked “C”) | A (a TECC value less than 12 is marked “A”) |
| C[C@@H](Cc1cccc([C@@]2(C)CCCC(C)(C)CS(=O)(=O)CCc3c(c(F)cc4[nH]ccc34)Sc3ccnc(c3)-c3nc2nn3C)c1)C(=O)O [Compound 253, (2S)-3-[3-[(6R)-22-fluoro-3,6,10,10-tetramethyl-12,12-dioxo-12λ6,24-dithia-3,4,19,28,30-pentazapentacyclo[23.3.1.12,5.015,23.016,20]triaconta-1(29),2(30),4,15,17,20,22,25,27-nonaen-6-yl]phenyl]-2-methyl-propanoic Acid] | C (a value greater than 10 °C and less than or equal to 25 °C is marked “C”) | B (a value between 12-20 is marked “B”) |
| C[C@@H](Cc1cccc(C2(C)CCCCCS(=O)(=O)CCc3c(c(F)cc4[nH]ccc34)Oc3ccnc(c3)-c3nc2nn3C)c1)C(=O)O (single isomer, unassigned) [Compound 261A] | C (a value greater than 10 °C and less than or equal to 25 °C is marked “C”) | C (a value between 20 and 80 is marked “C”) |
| CC(Cc1cccc(C2CCCC(C)(C)CS(=O)(=O)CCc3c(c(F)cc4[nH]ccc34)Oc3cccc(c3)-c3ccn2n3)c1)C(=O)O (centres unmarked) [Compound 25, 3-[3-(22-Fluoro-10,10-dimethyl-12,12-dioxo-24-oxa-12lambda6-thia-5,19,30-triazapentacyclo[23.3.1.12,5.015,23.016,20]triaconta-1(29),2(30),3,15,17,20,22,25,27-nonaen-6-yl)phenyl]-2-methyl-propanoic Acid] | C (a value greater than 10 °C and less than or equal to 25 °C is marked “C”) | A (a TECC value less than 12 is marked “A”) |
| Cc1cnn2c1-c1cc(ccc1F)Oc1c(F)cc3[nH]ccc3c1CCS(=O)(=O)CC(C)(C)CCCC2c1cccc(CCC(=O)O)c1 (single isomer, unassigned) [Compound 65B, 3-[3-(23,29-Difluoro-3,11,11-trimethyl-13,13-dioxo-25-oxa-13λ6-thia-5,6,20-triazapentacyclo[24.3.1.02,6.016,24.017,21]triaconta-1(30),2,4,16,18,21,23,26,28-nonaen-7-yl)phenyl]propanoic acid] | C (a value greater than 10 °C and less than or equal to 25 °C is marked “C”) | A (a TECC value less than 12 is marked “A”) |
| Cn1nc2nc1-c1cc(ccc1F)Cc1c(F)cc3[nH]ccc3c1CCS(=O)(=O)CC(C)(C)CCCC2(C)c1cccc(CCC(=O)O)c1 (single isomer, unassigned) [Compound 32B, 3-[3-(22,28-Difluoro-3,6,10,10-tetramethyl-12,12-dioxo-12lambda6-thia-3,4,19,30-tetrazapentacyclo[23.3.1.12,5.015,23.016,20]triaconta-1(29),2(30),4,15,17,20,22,25,27-nonaen-6-yl)phenyl]propanoic Acid] | C (a value greater than 10 °C and less than or equal to 25 °C is marked “C”) | C (a value between 20 and 80 is marked “C”) |
| CC(Cc1cccc(C2(C)CCOC(C)(C)CS(=O)(=O)CCc3c(c(F)cc4[nH]ccc34)Oc3ccc(F)c(c3)-c3nc2nn3C)c1)C(=O)O (single isomer, unassigned) [Compound 28A, 3-[3-(22,28-difluoro-3,6,10,10-tetramethyl-12,12-dioxo-9,24-dioxa-12lambda6-thia-3,4,19,30-tetrazapentacyclo[23.3.1.12,5.015,23.016,20]triaconta-1(29),2(30),4,15,17,20,22,25,27-nonaen-6-yl)phenyl]-2-methyl-propanoic Acid] | C (a value greater than 10 °C and less than or equal to 25 °C is marked “C”) | C (a value between 20 and 80 is marked “C”) |
